Source: patent publication US12357636B2 (Urovant Sciences GmbH, priority 2018, dated 2025)

Key:
CYP3A4 = CYP3A4 (Homo sapiens, UniProt P08684); assay: in vitro CYP metabolism; format: in vitro ADME
men and women with OAB = assay: Phase 2b study in OAB: efficacy (voiding diary); format: in vivo, human; conditions: OAB Wet
Description: Part 2 was designed to continue to assess the safety and efficacy of concomitant dosing. […] Subjects in both Part 1 and Part 2 had the option of enrolling in a 1-year extension. Participants were required to keep a voiding diary, recording the occurrence of each strong urge, total incontinence, and urge incontinence episode. Efficacy data for Part 1 and Part 2 are summarized herein.
The total number of urgency incontinence episodes must have exceeded the total number of stress incontinence episodes for all subjects.
Conversely, a dose dependent effect on urge incontinence or total incontinence was not observed.

[1] = drug interaction: effect of ketoconazole, diltiazem or tolterodine on vibegron PK; format: in vivo, human
Description: However, these interactions are not expected to be clinically significant.

[2] = effect of food on oral absorption; format: in vivo, human
[3] = human, in vivo
healthy volunteers = assay: thorough QT study: RR interval and blood pressure (Table 19); format: in vivo, human
β2-AR = β2-AR (Homo sapiens, UniProt P07550); assay: competition binding assay, membranes with recombinant β2-AR
Sequence of β2-AR (P07550 whole entry): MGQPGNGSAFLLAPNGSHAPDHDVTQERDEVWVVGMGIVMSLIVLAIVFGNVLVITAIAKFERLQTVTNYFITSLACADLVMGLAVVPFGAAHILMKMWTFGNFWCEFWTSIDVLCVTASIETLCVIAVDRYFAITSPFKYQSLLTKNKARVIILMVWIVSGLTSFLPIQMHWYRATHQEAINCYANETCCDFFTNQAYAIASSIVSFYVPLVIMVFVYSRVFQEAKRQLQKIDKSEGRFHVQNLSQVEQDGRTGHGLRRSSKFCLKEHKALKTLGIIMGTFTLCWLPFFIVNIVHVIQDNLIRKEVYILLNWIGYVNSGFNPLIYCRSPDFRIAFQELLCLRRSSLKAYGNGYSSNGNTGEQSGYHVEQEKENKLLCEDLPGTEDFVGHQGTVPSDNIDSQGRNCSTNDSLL

[4] = tested on: men and women with overactive bladder; assay: Phase 3 study vibegron 75 mg: post-void residual urine volume (Tables 26-28); format: in vivo, human
Description: The risk of acute urinary retention or morbidities related to an increase in Post-Void Residual (PVR) is a concern with antimuscarinic therapy that promotes smooth muscle relaxation by inhibiting acetylcholine-induced smooth muscle contraction. If, during contraction, the bladder cannot generate enough pressure to overcome the outlet resistance in the urethra, either because of poor detrusor contractility or profound obstruction (most commonly from BPH), acute urinary retention or incomplete emptying of the bladder may result.
The volume of urine that remains in the bladder after voiding (PVR) is an objective measurement that may serve as a proxy for impaired ability to void.
PVR were performed via ultrasound at the visits indicated in the Schedule of Activities.
In addition, the data on the Post Void Residual Urine Volume (PVR) in all males and males with a medical history of BPH is shown in Tables 26 and 27, respectively.

[5] = dose-Cmax and dose-AUC models, log-log regression and simulations for 75 mg; parameters: species or system human
Description: In order to contextualize PK parameters of a 75 mg dose, dose-Cmax and dose-AUC models were created using data from Phase 1 studies.

patients with OAB = assay: Phase 2b study: cardiovascular safety, orthostatic AEs, blood pressure and heart rate changes (Table 17); format: in vivo, human
Description: None led to discontinuation. The overall incidence of orthostatic symptoms was low.
Small differences in the percent of subjects exceeding categorical heart rate and blood pressure thresholds for vibegron were similar to those in the tolterodine arm.

[6] = multiple doses of 240 mg or 180 mg diltiazem, vibegron 100 mg
[7] = 150 mg multiple doses, Day 14, middle-aged females
[8] = single 50 mg, Japanese young males
[9] = single 50 mg, non-Japanese young males
[10] = Males with medical history of BPH
[11] = all males, vibegron 75 mg or tolterodine ER 4 mg QD
[12] = vibegron 3 mg, counts based on 3 consecutive post-baseline visits

Sequence of CYP3A4 (P08684 whole entry): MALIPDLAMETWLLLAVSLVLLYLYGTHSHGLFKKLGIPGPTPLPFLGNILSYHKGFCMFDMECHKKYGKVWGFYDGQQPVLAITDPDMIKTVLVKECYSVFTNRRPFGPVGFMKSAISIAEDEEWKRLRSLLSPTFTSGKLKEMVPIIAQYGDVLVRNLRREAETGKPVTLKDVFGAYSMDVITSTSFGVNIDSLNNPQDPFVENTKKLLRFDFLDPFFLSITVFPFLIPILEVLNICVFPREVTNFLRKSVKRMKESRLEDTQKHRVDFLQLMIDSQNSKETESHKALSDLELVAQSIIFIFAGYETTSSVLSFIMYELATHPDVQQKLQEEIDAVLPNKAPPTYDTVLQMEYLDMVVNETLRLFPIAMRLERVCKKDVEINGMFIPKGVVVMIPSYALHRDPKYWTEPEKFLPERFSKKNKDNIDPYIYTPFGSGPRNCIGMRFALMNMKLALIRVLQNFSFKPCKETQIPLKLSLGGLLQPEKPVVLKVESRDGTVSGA

For O=C(Nc1ccc(C[C@@H]2CC[C@H]([C@H](O)c3ccccc3)N2)cc1)[C@@H]1CCc2nccc(=O)n21 [Vibegron, (6S)—N-[4-[[(2S,5R)-5-[(R)-hydroxy(phenyl)methyl]pyrrolidin-2-yl]methyl]phenyl]-4-oxo-7,8-dihydro-6H-pyrrolo[1,2-a]pyrimidine-6-carboxamide], the “predominant CYP responsible for in vitro metabolism” value (CYP3A4) was “CYP3A4”, the “Urgency Incontinence Episodes daily number, Week 8 mean” value (men and women with OAB; vibegron 15 mg QD) was 1.12 and the “Total Incontinence Episodes daily number, Week 8 mean” value (men and women with OAB; vibegron 100 mg QD) was 1.12. The “effect of tolterodine ER 4 mg on the pharmacokinetics of vibegron” value ([1]; in vivo) was “no effect”, the “GM AUC0-inf increase with diltiazem” value [1, 6] was 63% and the “GM Cmax increase with diltiazem” value [1, 6] was 68%. For the same compound, the “mean Cmax with food compared to fasted state” value ([2]; 150 mg multiple doses, Day 1) was 59%, the “mean AUC0-24 with food compared to fasted state” value ([2]; 150 mg multiple doses, Day 1, middle-aged and elderly females) was ~42% and the “mean AUC0-24 with food compared to fasted state” value ([2]; 150 mg multiple doses, Day 14) was ~20%. The “mean Cmax with food compared to fasted state” value ([2]; 150 mg multiple doses, Day 14) was 43%, the “reduction in mean AUC0-24hr with food vs fasted” value [2, 7] was 20% and the “reduction in mean Cmax with food vs fasted” value [2, 7] was 47%. The Tmax ([2]; male, human, plasma, oral, single 50 mg, non-Japanese young males, read-out: delay in Tmax with high-fat meal) was ~1 h, the “reduction in AUC0-inf with standard Japanese breakfast” value [2, 8] was 37% and the “reduction in Cmax with standard Japanese breakfast” value [2, 8] was 52%. The “reduction in AUC0-inf with high-fat meal vs fasted” value [2, 9] was 46%, the “reduction in Cmax with high-fat meal vs fasted” value [2, 9] was 67% and the “dose recovered in feces” value [3] was “approximately 59%”. The “dose recovered in urine” value [3] was ~20%, the “Maximum Mean Placebo Corrected Change from Baseline Diastolic BP (90% CI)” value (healthy volunteers; single dose 200 mg) was 2.42 mmHg and the “Maximum Mean Placebo Corrected Change from Baseline RR interval (90% CI)” value (healthy volunteers; single dose 200 mg) was -84.36 ms. The “Maximum Mean Placebo Corrected Change from Baseline Systolic BP (90% CI)” value (healthy volunteers; single dose 200 mg) was 2.20 mmHg, the “Maximum Mean Placebo Corrected Change from Baseline Diastolic BP (90% CI)” value (healthy volunteers; single dose 400 mg) was 3.99 mmHg and the “Maximum Mean Placebo Corrected Change from Baseline RR interval (90% CI)” value (healthy volunteers; single dose 400 mg) was -162.45 ms. The “Maximum Mean Placebo Corrected Change from Baseline Systolic BP (90% CI)” value (healthy volunteers; single dose 400 mg) was 3.97 mmHg, the “binding to β2-AR” value (β2-AR) was “does not bind” and the “PVR Categories at Week 12: <100 mL” value [4, 10] was 96.6%. The “PVR Categories at Week 12: ≥100 mL to <200 mL” value [4, 10] was 0%, the “PVR Categories at Week 12: ≥200 mL to <350 mL” value [4, 10] was 3.4% and the “PVR Categories at Week 12: ≥350 mL” value [4, 10] was 0%. For the same compound, the “PVR Mean Change from Baseline at Week 12 (SD)” value (“PVR Mean Change … (SD)” below) [4, 10] was −3.4 (42.45) mL, the “PVR Mean Change … (SD)” value [4, 11] was 2.2 (48.45) mL and the “PVR category <100 mL at Week 12” value [4, 11] was 89.7%. The “PVR category ≥100 mL to <200 mL at Week 12” value [4, 11] was 7.7%, the “PVR category ≥200 mL to <350 mL at Week 12” value [4, 11] was 2.6% and the “PVR category ≥350 mL at Week 12” value [4, 11] was 0. The “PVR Categories at Week 12: <100 mL” value ([4]; study population as a whole) was 89.9%, the “PVR Categories at Week 12: ≥100 mL to <200 mL” value ([4]; study population as a whole) was 3.5% and the “PVR Categories at Week 12: ≥200 mL to <350 mL” value ([4]; study population as a whole) was 0.6%. The “PVR Categories at Week 12: ≥350 mL” value ([4]; study population as a whole) was 0%, the “PVR Mean Change … (SD)” value ([4]; study population as a whole) was 0.4 (38.27) mL and the “AUC of 75 mg lower than 200 mg single dose” value [5] was ~2 fold. For the same compound, the “AUC of 75 mg lower than 400 mg single dose” value [5] was ~6 fold, the “Cmax of 75 mg lower than 200 mg single dose” value [5] was “approximately 3.3 fold” and the “Cmax of 75 mg lower than 400 mg single dose” value [5] was ~9.2 fold. For the same compound, the “increase in Cmax with increase in dose from 50 to 100 mg” value [5] was ~4 fold, the “reduction in Cmax on decreasing dose from 100 mg to 75 mg” value [5] was ~40% and the “SBP and DBP mean changes at Week 1 and mean maximum changes over 8 weeks, difference between placebo and vibegron” value (patients with OAB; 50 mg and 100 mg) was < 1 mm Hg. The “subjects with a change from baseline in DBP>15 mmHg” value (patients with OAB; 100 mg) was 1.3%, the “HR mean maximum changes over 8 weeks, compared to placebo” value (patients with OAB; in vivo) was < 2 bpm and the “DBP Change from Baseline [≥] 5 mm Hg, n/N (%)” value (patients with OAB; [12]) was 14/140 (10.0) %. The “DBP Change from Baseline [≥] 10 mm Hg, n/N (%)” value (patients with OAB; [12]) was 3/140 (2.1) %, the “DBP Change from Baseline ≥15 mm Hg, n/N (%)” value (patients with OAB; [12]) was 1/140 (0.7) % and the “HR Change from Baseline [≥] 10 bpm, n/N (%)” value (patients with OAB; [12]) was 5/140 (3.6) %. For the same compound, the “HR Change from Baseline ≥5 bpm, n/N (%)” value (patients with OAB; [12]) was 16/140 (11.4) % and the “HR Change from Baseline ≥15 bpm, n/N (%)” value (patients with OAB; [12]) was 1/140 (0.7) %.
